Experimental findings from patent publication US8198307B2, “Imidazole derivatives having aryl piperidine substituent, method for preparation thereof and pharmaceutical compositions containing same” (Korea Research Institute of Chemical Technology, priority 2007, dated 2012) are described below.

This experiment addresses T1, MCH R1 (melanine-concentrating hormone receptor-1) (Homo sapiens, UniProt Q99705).
T1 construct: purchased Euroscreen, Gosselies, Belgium
The experiment in a line: Inhibitory effects on MCH R1 binding (Eu-MCH time-resolved fluorescence binding assay). As to conditions: concentration inhibiting the binding of MCH (Eu-MCH, 2 nM) to MCH R1 by 50% in vitro; TRF readout; test range 1 nM to 10 μM; read-out: IC50. As for the experimental part: First, MCH R1 (melanine-concentrating hormone receptor-1; Euroscreen, Gosselies, Belgium), 1 μM Europium-labeled melanine-concentrating hormone (Eu-MCH, PerkinElmer, Turku, Finland) and 1 mM melanine-concentrating hormone (MCH, #070-47, Phoenix, Belmont Calif., USA) were kept at 4° C. for ready use. 1 μM Eu-MCH and 1 mM MCH were diluted with an experimental solution (25 mM HEPES pH 7.4, 5 mM MgCl2, 1 mM CaCl2 and 0.5% (w/w) BSA) to 8 nM (final reaction concentration: 2 nM) and 2 μM (final reaction concentration: 0.5 μM), respectively. The compounds prepared in the Examples (“Test compounds”) were dissolved in the experimental solution in concentration of 4 nM to 40 μM (final reaction concentration: 1 nM to 10 μM). MCH R1 (200 assays/vial) was homogeneously dispersed in the experimental solution.
Then, 100 μl/well of the following reaction mixture was added to the wells of a microplate (Multiwell 96 well filter plates PN5020, Pall Co., Ann Arbor, Mich., USA) equipped with a filter paper, with an 8-channel pipette (multi 8-channel, Eppendorf, Hamburg, Germany). Specifically, to the wells of a non-specific binding control group, 25 μl of Eu-MCH, 50 μl of MCH R1 and 25 μl of MCH were added. Further, 25 μl of the experimental solution supplemented with 10% (w/w) of DMSO, 25 μl of Eu-MCH and 50 μl of MCH R1 were added to the wells of a total binding control group, while 25 μl of the test compounds, 25 μl Eu-MCH and 50 μl of MCH R1 were added to the wells of an experimental group. Subsequently, the microplate was shaken gently for 15 seconds and kept at room temperature for 90 minutes to allow the reaction to take place. Then, the plate was washed with a microplate washer (EMBLA, Molecular Devices) by washing three times with 300 μl of a washing solution (25 mM HEPES pH 7.4, 5 mM MgCl2, 1 mM CaCl2) to remove the residual unreacted Eu-MCH. Moisture was removed from the bottom of the wells and 150 μl of dissociation solution (DELFIA Enhancement solution, PerkinElmer, Turku, Finland) was added to each well, followed by keeping the plate at room temperature for 2 to 4 hours. Subsequently, time-resolved fluorescence (TRF) values were measured with a multilabel counter (Victor2, PerkinElmer, Turku, Finland) (emission wave length: 615 nm, excitation wave length: 340 nm). The inhibition rate based on the time-resolved fluorescence data was calculated using the following Equation (I). Inhibition rate of time-resolved fluorescence (%)=[(Average TRF value of the total binding group−Time-resolved fluorescence value of the test compound)/(Average TRF value of the total binding group−Average TRF value of the non-specific binding group)]×100 (I)

T1 sequence (Q99705 whole entry, species assumed): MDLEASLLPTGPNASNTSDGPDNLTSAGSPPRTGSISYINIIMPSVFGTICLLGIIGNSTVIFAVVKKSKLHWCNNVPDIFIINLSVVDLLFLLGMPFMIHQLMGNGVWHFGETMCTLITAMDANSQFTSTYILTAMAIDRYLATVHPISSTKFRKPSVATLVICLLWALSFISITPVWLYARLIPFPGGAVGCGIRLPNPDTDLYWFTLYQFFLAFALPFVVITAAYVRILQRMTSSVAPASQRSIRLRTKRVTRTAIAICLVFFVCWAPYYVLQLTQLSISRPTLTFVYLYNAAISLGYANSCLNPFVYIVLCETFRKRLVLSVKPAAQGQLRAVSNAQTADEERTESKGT

Consider `CC(=O)Nc1cccc(C2CCN(CCCn3c(-c4cccc([N+](=O)[O-])c4)nc4ccccc43)CC2)c1` [Example 55, 2-(3-nitrophenyl)-1-{3-[4-(3-acetylaminophenyl)piperidin-1-yl]propyl}-1H-benzimidazole], for which the IC50 is 8 nM.

Regarding `COc1ccc(Cl)cc1-c1nc2ccccc2n1CCCN1CCC(c2cccc(NC(C)=O)c2)CC1` [Example 56, 2-(5-chloro-2-methoxyphenyl)-1-{3-[4-(3-acetylaminophenyl)piperidin-1-yl]propyl}-1H-benzimidazole], the IC50 came out at 66 nM.

`CC(=O)Nc1cccc(C2CCN(CCCn3c(-c4ccc([N+](=O)[O-])cc4Cl)nc4ccccc43)CC2)c1` [Example 57, 2-(2-chloro-4-nitrophenyl)-1-{3-[4-(3-acetylaminophenyl)piperidin-1-yl]propyl}-1H-benzimidazole]: the IC50 is 37 nM.

As for `COc1ccc(-c2nc3ccccc3n2CCCN2CCC(c3cccc(NC(C)=O)c3)CC2)c(OC)c1` [Example 58, 2-(2,4-dimethoxyphenyl)-1-{3-[4-(3-acetylaminophenyl)piperidin-1-yl]propyl}-1H-benzimidazole], the IC50 amounted to 22 nM.

`CC(=O)Nc1cccc(C2CCN(CCCn3c(-c4ccc(Cl)cc4F)nc4cc(C)c(C)cc43)CC2)c1` [Example 59, 2-(4-chloro-2-fluorophenyl)-1-{3-[4-(3-acetylaminophenyl)piperidin-1-yl]propyl}-5,6-dimethyl-1H-benzimidazole]: the IC50 worked out at 239 nM.

As for `CC(=O)Nc1cccc(C2CCN(CCCn3c(-c4ccc(Cl)cc4)nc4cc(C(N)=O)ccc43)CC2)c1` [Example 60, 2-(4-chlorophenyl)-1-{3-[4-(3-acetylaminophenyl)piperidin-1-yl]propyl}-5-carbamoyl-1H-benzimidazole], the IC50 was found to be 8 nM.

`CC(=O)Nc1cccc(C2CCN(CCCn3c(-c4ccc(Cl)cc4)nc4ccc(C(N)=O)cc43)CC2)c1` [Example 61, 2-(4-chlorophenyl)-1-{3-[4-(3-acetylaminophenyl)piperidin-1-yl]propyl}-6-carbamoyl-1H-benzimidazole]: the IC50 was found to be 199 nM.

For the molecule `CC(=O)Nc1cccc(C2CCN(CCCn3c(-c4cccc(C(N)=O)c4)nc4ccccc43)CC2)c1` [Example 62, 2-(3-carbamoylphenyl)-1-{3-[4-(3-acetylaminophenyl)piperidin-1-yl]propyl}-1H-benzimidazole], the half-maximal inhibitory concentration (IC50) came out at 11 nM.

With `CC(=O)Nc1cccc(C2CCN(CCCn3c(-c4ccccc4O)nc4ccccc43)CC2)c1` [Example 63, 2-(2-hydroxyphenyl)-1-{3-[4-(3-acetylaminophenyl)piperidin-1-yl]propyl}-1H-benzimidazole], the IC50 is 94 nM.

Consider `CC(C)C(=O)Nc1cccc(C2CCN(CCCn3c(-c4ccc(Cl)cc4)nc4ccccc43)CC2)c1` [Example 64, 2-(4-chlorophenyl)-1-{3-[4-(3-isobutyrylaminophenyl)piperidin-1-yl]propyl}-1H-benzimidazole], for which the IC50 was 5 nM.

In the case of `O=C(Nc1cccc(C2CCN(CCCn3c(-c4ccc(Cl)cc4)nc4ccccc43)CC2)c1)c1ccccc1` [Example 65, 2-(4-chlorophenyl)-1-{3-[4-(3-benzoylaminophenyl)piperidin-1-yl]propyl}-1H-benzimidazole], the IC50 came out at 19 nM.

Turning to `O=C(Nc1cccc(C2CCN(CCCn3c(-c4ccc(Cl)cc4)nc4ccccc43)CC2)c1)c1cccc(Cl)c1` [Example 66, 2-(4-chlorophenyl)-1-{3-[4-(3-(3-chlorobenzoylamino)phenyl)piperidin-1-yl]propyl}-1H-benzimidazole], the IC50 worked out at 213 nM.

In the case of `Cc1ccc(C(=O)Nc2cccc(C3CCN(CCCn4c(-c5ccc(Cl)cc5)nc5ccccc54)CC3)c2)cc1` [Example 67, 2-(4-chlorophenyl)-1-{3-[4-(3-(4-methylbenzoylamino)phenyl)piperidin-1-yl]propyl}-1H-benzimidazole], the half-maximal inhibitory concentration (IC50) is over 10000 nM.

Take `CC(=O)Nc1cccc(C2CCN(CCCn3c(-c4ccccc4)nc4cc(Br)c(C)nc43)CC2)c1` [Example 68, 6-bromo-5-methyl-2-phenyl-3-{3-[4-(3-acetylaminophenyl)piperidin-1-yl]propyl}-3H-imidazo[4,5-b]pyridine]: the IC50 turned out to be 110 nM.

In the case of `CC(=O)Nc1cccc(C2CCN(CCCn3c(-c4ccccc4)nc4ccc(C)nc43)CC2)c1` [Example 69, 5-methyl-2-phenyl-3-{3-[4-(3-acetylaminophenyl)piperidin-1-yl]propyl}-3H-imidazo[4,5-b]pyridine], the IC50 was 22 nM.

Consider `CC(=O)Nc1cccc(C2CCN(CCCn3c(-c4ccc5c(c4)OCO5)nc4ccccc43)CC2)c1` [Example 70, 2-(benzo[1,3]dioxol-5-yl)-1-{3-[4-(3-acetylaminophenyl)piperidin-1-yl]propyl}-1H-benzimidazole], for which the IC50 was 12 nM.

`CC(C)C(=O)Nc1cccc(C2CCN(CCn3c(-c4ccc(Cl)cc4)nc4ccccc43)CC2)c1` [Example 71, 2-(4-chlorophenyl)-1-{2-[4-(3-isobutyrylaminophenyl)piperidin-1-yl]ethyl}-1H-benzimidazole]: the IC50 is over 10000 nM.

For `CC(=O)Nc1cccc(C2CCN(CCCn3c(-c4ccccc4)nc4ccncc43)CC2)c1` [Example 72, 2-phenyl-3-{3-[4-(3-acetylaminophenyl)piperidin-1-yl]propyl}-3H-imidazo[4,5-c]pyridine], the IC50 came to 260 nM.

As to `CC(=O)Nc1cccc(C2CCN(CCCn3c(-c4ccccc4)nc4nc(C)c(Br)cc43)CC2)c1` [Example 74], the IC50 came out at 680 nM.

`CC(=O)Nc1cccc(C2CCN(CCCn3c(-c4ccccc4)nc4nc(C)ccc43)CC2)c1` [Example 75]: the IC50 came to 23 nM.

For `COC(=O)c1cccc(-c2nc3ccccc3n2CCCN2CCC(c3cccc(NC(C)=O)c3)CC2)c1` [Example 76, 2-(3-methoxycarbonylphenyl)-1-{3-[4-(3-acetylaminophenyl)piperidin-1-yl]propyl}-1H-benzimidazole], the IC50 was found to be 60 nM.

With `CCc1ccc(-c2nc3ccccc3n2CCCN2CCC(c3cccc(NC(C)=O)c3)CC2)cc1` [Example 77, 2-(4-ethylphenyl)-1-{3-[4-(3-acetylaminophenyl)piperidin-1-yl]propyl}-1H-benzimidazole], the IC50 amounted to 60 nM.

Regarding `CC(=O)Nc1cccc(C2CCN(CCCn3c(-c4ccc(C#N)cc4)nc4cc(C)c(C)cc43)CC2)c1` [Example 78, 2-(4-cyanophenyl)-1-{3-[4-(3-acetylaminophenyl)piperidin-1-yl]propyl}-5,6-dimethyl-1H-benzimidazole], the IC50 came out at 100 nM.

In the case of `CC(=O)Nc1cccc(C2CCN(CCCn3c(-c4cccc(C)c4)nc4ccccc43)CC2)c1` [Example 79, 2-(m-tolyl)-1-{3-[4-(3-acetylaminophenyl)piperidin-1-yl]propyl}-1H-benzimidazole], the IC50 came to 20 nM.

Turning to `CC(=O)Nc1cccc(C2CCN(CCCn3c(-c4ccc(F)cc4Cl)nc4cc(C)c(C)cc43)CC2)c1` [Example 80, 2-(2-chloro-4-fluorophenyl)-1-{3-[4-(3-acetylaminophenyl)piperidin-1-yl]propyl}-5,6-dimethyl-1H-benzimidazole], the IC50 worked out at 80 nM.

With `CC(=O)Nc1cccc(C2CCN(CCCn3c(-c4ccc(Cl)cc4)nc4cc(C#N)ccc43)CC2)c1` [Example 81, 2-(4-chlorophenyl)-1-{3-[4-(3-acetylaminophenyl)piperidin-1-yl]propyl}-5-cyano-1H-benzimidazole], the IC50 worked out at 70 nM.

Consider `CC(=O)Nc1cccc(C2CCN(CCCn3c(-c4ccc(Cl)cc4)nc4ccc(C#N)cc43)CC2)c1` [Example 82, 2-(4-chlorophenyl)-1-{3-[4-(3-acetylaminophenyl)piperidin-1-yl]propyl}-6-cyano-1H-benzimidazole], for which the IC50 came to 70 nM.

With `CC(=O)Nc1cccc(C2CCN(CCCn3c(-c4ccc(Cl)cc4)nc4cc(F)ccc43)CC2)c1` [Example 83, 2-(4-chlorophenyl)-1-{3-[4-(3-acetylaminophenyl)piperidin-1-yl]propyl}-5-fluoro-1H-benzimidazole], the IC50 came out at 70 nM.
